Four molecules from patent publication US20200188540A1, “CONFORMATIONALLY STRAINED TRANS-CYCLOALKENES FOR RADIOLABELING” (UNIVERSITY OF DELAWARE, priority 2015, published 2020) can be followed below.

Data set [1] in a line: Stopped-flow kinetic analysis of Diels-Alder reaction of sTCO diastereomers with PEGylated tetrazine 11. The note with it: for rate constant k2 with tetrazine 11: 55:45 MeOH:water at 25° C., stopped flow; for Mean k2: average of four sTCO concentrations, spread printed in cells below; for Mean k2 / k2 / kobs: tetrazine 11 0.05 mM, water:methanol 45:55, 25° C.; for kobs: in s-1 (unit assumed). Here is the method: Stopped flow kinetic analysis was used to measure the rate of the Diels-Alder reaction between tetrazine derivative 11 and anti- and syn-diastereomers of sTCO (4 and 5, respectively). […] The latter is the fastest rate constant that has been described for a bioorthogonal reaction. For the present study, the inventors used stopped flow analysis to compare the relative rate of the syn- and anti-diastereomers 5 and 4 with tetrazine 11 in mixed organic/aqueous media (55:45 MeOH:water at 25° C.). As expected, the rates in MeOH:water were ˜9 fold slower than the measurements made in purely aqueous media, but still extremely rapid. The rate constant for the syn-diastereomer 5 with tetrazine 11 was k2 3.7×10^4 (+/−0.1×10^3) M^−1s^−1, and the anti-diastereomer 4 reacted with a rate constant k2 3.3×10^4 (+/−0.1×10^3) M^−1s^−1. Because the syn-diastereomer was more reactive it was chosen for further development
The second order rate constant was measured under pseudo-first order conditions using an excess of the appropriate sTCO diastereomer (4 or 5), and by following the exponential decay of absorbance due to the tetrazine chromophore of 11 at 298 nm using an SX 18MV-R stopped-flow spectrophotometer (Applied Photophysics Ltd.). For each run, equal volumes of 45:55 water:methanol solutions of sTCO and PEGylated tetrazine 11 were mixed in the stopped flow device. Reactions were carried out with tetrazine 11 at 0.05 mM and final concentrations of 0.245, 0.49, 0.98 and 1.47 mM for the syn-diastereomer 5. Similarly, reactions were carried out with tetrazine 11 at 0.05 mM and final concentrations of 0.25, 0.50, 1.00 and 1.50 mM for the anti-diastereomer 4. A total of 400 data points were recorded over a period of 1 second, and each sample was performed in sextuplicate at 298 K. The kobs was determined by nonlinear regression analysis of the data points using Prism software (v. 6.00, GraphPad Software Inc.).
The reaction between sTCOs 4 & 5 and the PEGylated tetrazine 11 was measured under pseudo-first order conditions in water:methanol 45:55 by following the exponential decay of the tetrazine at 298 nm over time using an SX 18MV-R stopped flow spectrophotometer (Applied Photophysics Ltd.). Solutions were prepared for the sTCO concentrations see table below water:methanol 45:55) and the tetrazine (0.1 mM in water:methanol 45:55) and thermostatted in the syringes of the spectrophotometer before measuring. 400 data points were recorded over a period of 1 second, and performed in sextuplicate at 298 K. The kobs was determined by nonlinear regression analysis of the data points using Prism software (v. 6.00, GraphPad Software Inc.).
• PEGylated tetrazine 11 at 25° C. in water:methanol (45:55) measured under pseudo first order conditions using SX 18MV-R stopped flow spectrophotometer. Values were determined from an average of four runs. Synthesis and Characterization of a Conformationally Strained Trans-Cyclooctene with a Cis-Fused Cyclopentane Ring

Data set [2] can be described thus: In vitro stability in 1× PBS buffer. As to conditions: 37° C.; for radiochemical purity after incubation in 1× PBS: 2 hours. The format is physicochemical. Here is the method: (§1) An aliquot of the solution (˜25 μCi) was taken out and loaded on HPLC at 1 h and 2 h time points for analysis. ^18F-9 was also incubated in FBS at 37° C. and after 1 h, an aliquot of the solution (˜25 μCi) was taken out and added to an equal volume of TFA. Similarly, ^18F-15 was also incubated in FBS at 37° C., and at 2 and 4 h time points, aliquots of the solution (˜25 μCi) were taken and added to an equal volume of TFA. For each sample, the mixture was centrifuged at 14000 rpm for 5 min. The supernatant was then diluted with 1 mL water and loaded on C18 Sep-Pak. After washing with 1 mL water, the cartridge was eluted with 0.5 mL acetonitrile. The water fraction and acetonitrile fraction were combined and loaded on HPLC for analysis

Data set [3] is described as follows: In vitro stability in fetal bovine serum (FBS). The note with it: 37° C. The data set is classed as in vitro ADME. Here is the method:
as §1

A short description of data set [4]: microPET imaging in normal (non-tumor bearing) nude mice. The data set is classed as in vivo. As to conditions: normal nude mouse. Here is the method: The inventors also performed microPET imaging with a normal (non-tumor bearing) nude mouse that had been injected with ^18F-9. […] The inventors also analyzed the clearance of the compound obtained by combining ^18F-9 with 11. This Diels-Alder conjugate—and analog of ^18F-15 that lacks the RGD moiety—still remained in the blood circulatory system after 4 hours. The blood uptake was 2.4% ID/g at 4 h post injection. The inventors have previously reported ^18F-labeled RGD probes derived from trans-cyclooctene 1.
No background correction was performed.

A further data set in a line: in vivo. As to conditions: mouse, iv, 3.7 MBq (100 uCi), total radioactivity. The protocol: (§2) The localization of ^18F-15 in human U87MG tumor-bearing mice (n=5) was performed by static microPET scans at multiple time-point post tail vein injection. Selected decay-corrected coronal images at different time points were obtained after injection of 3.7 MBq (100 μCi) of ^18F-15. […] Data are expressed as average +/−SD.
(§3) Animal procedures were performed according to a protocol approved by the UNC Institutional Animal Care and Use Committee. PET scans and image analysis were performed using a small animal PET scanner. Human U87MG tumor-bearing mice were anesthetized using 2% isoflurane and injected with 3.7 MBq (100 μCi) of ^18F-15 via the tail vein. At 0.5, 1.0, 2.0, and 4.0 h post injection, static emission scans were acquired for 10 min. Normal nude mice were injected with 3.7 MBq (100 μCi) of the Diels-Alder conjugate obtained by combining ^18F-9 and 11), or in a separate experiment by injecting only ^18F-9 using the same protocol. Raw PET images were reconstructed using 2D ordered subset expectation maximization (OSEM) algorithm. No background correction was performed. Regions of interest (ROI) were manually drawn over the tumor and other organs on the decay corrected coronal images. Based on the assumption that the tissue density is 1 g/mL, the ROIs were converted to % ID/g by dividing dose per gram at ROI by injected dose.
(§4) Quantitative data were expressed as mean±SD. Means were compared using one-way ANOVA and Student's t test. P values<0.05 were considered statistically significant.

The subject of the next data set is human U87MG tumor. Briefly: in vivo. Here is the method: as §2, §3, §4

Each structure is given as a SMILES string.

In the case of `FCCOCCOCCOC[C@@H]1[C@@H]2CC/C=C/CC[C@@H]21` [^18F-9], the kinetics with diphenyl-s-tetrazines in data set [1] (general statement of reactivity) is > 10^4 M^−1s^−1. Besides, the “radiopurity after incubation in 1× PBS” value in data set [2] (1 hour) amounted to 97.5%. Further, the “radiochemical purity after incubation in 1× PBS” value in data set [2] amounted to 97.3%. Further, the “radiochemical purity retained in fetal bovine serum” value in data set [3] (1 hour) amounted to 74%. In addition, the “time to clearance by the gallbladder, kidney and liver” value in data set [4] was no more than 2 h.
With `N=C(N)NCCC[C@@H]1NC(=O)C(CCCCNC(=O)CCOCCOCCOCCOCCOCCOCCOCCOCCOCCOCCOCCOCCNC(=O)OCc2ccc(C3=NNC(c4ccccc4)=C4CC[C@H]5[C@@H](CCC34)[C@H]5COCCOCCOCCF)cc2)NC(=O)[C@@H](Cc2ccc(O)cc2)NC(=O)[C@H](CC(=O)O)NC(=O)CNC1=O` (stereo partly drawn) [^18F-15], in data set [2], the “radiochemical purity after incubation in 1× PBS” value is reported as 98.5%. Further, in data set [3] (2 hours post incubation), the “purity in fetal bovine serum” value was determined as 96.7%. In data set [3] (4 hours post incubation), the “purity in fetal bovine serum” value is 94.5%. For the same molecule, in the data set “in vivo” (tumor (U87MG)), the tissue uptake at 0.5 h amounted to 5.3 %ID/g, the tissue uptake at 1 h was 6.9 %ID/g, the tissue uptake at 2 h was 7.5 %ID/g and the tissue uptake at 4 h worked out at 8.9 %ID/g. Besides, in “in vivo” (tumor and kidney), the tissue to tissue ratio at 4 h worked out at 2.4. In addition, the tissue to tissue ratio at 4 h in “in vivo” (tumor and liver) was 1.6. Further, the “tumor uptake relative to other major organs” value with human U87MG tumor (4 h post injection) is on record as 1.6-2.4 fold. In addition, in the data set on human U87MG tumor (co-injected with non-radio labeled cRGDyK (200 μg), 1 h post injection), the “tracer uptake in tumor, blocking experiment” value is 4.8+/−0.3%.
As for `OCC1C2CCC=CCCC12` (stereo not drawn) [Compound 4], the “rate constant k2 with tetrazine 11” value in data set [1] is recorded as 3.3×10^4 (+/−0.1×10^3) M^−1s^−1. Also, the “Mean k2” value in data set [1] is 31,700 M^−1s^−1. In addition, the k2 in data set [1] (resulting sTCO 0.25 mM) worked out at 29832 M⁻¹ s⁻¹; in data set [1] (resulting sTCO 0.5 mM), 31680 M⁻¹ s⁻¹; in data set [1] (resulting sTCO 1 mM), 32510 M⁻¹ s⁻¹; in data set [1] (resulting sTCO 1.5 mM) it was 32653 M⁻¹ s⁻¹. Further, the kobs in data set [1] (resulting sTCO 0.25 mM) came out at 7.458; in data set [1] (resulting sTCO 0.5 mM) it was 15.84; in data set [1] (resulting sTCO 1 mM), 32.51; in data set [1] (resulting sTCO 1.5 mM) it was 48.98.
With `OC[C@H]1[C@H]2CC/C=C/CC[C@@H]12` [Compound 5, (rel-1R,8S,9S,4E)-Bicyclo[6.1.0]non-4-ene-9-ylmethanol], the “rate constant k2 with tetrazine 11” value in data set [1] is recorded as 3.7×10^4 (+/−0.1×10^3) M^−1s^−1. Besides, in data set [1], the “Mean k2” value is recorded as 36,100 M^−1s^−1. Moreover, the k2 in data set [1] (resulting sTCO 0.245 mM) amounted to 34347 M⁻¹ s⁻¹; in data set [1] (resulting sTCO 0.49 mM) it was 37571 M⁻¹ s⁻¹; in data set [1] (resulting sTCO 0.98 mM) it was 35796 M⁻¹ s⁻¹; in data set [1] (resulting sTCO 1.47 mM), 36857 M⁻¹ s⁻¹. For the same molecule, the kobs in data set [1] (resulting sTCO 0.245 mM) was 8.415; in data set [1] (resulting sTCO 0.49 mM) it was 18.41; in data set [1] (resulting sTCO 0.98 mM), 35.08; in data set [1] (resulting sTCO 1.47 mM), 54.18.
